Experimental data as given in patent US10231954B2, “Neurodegenerative therapies” (LYTIX BIOPHARMA AS, priority 2014, dated 2019).

What was measured:
Type in all cases: biochemical
p38b MAPK = p38b MAPK (Homo sapiens, UniProt Q15759); assay: Kinase profiling p38b MAPK; settings: 100 micromolar inhibitor concentration, 100 is no change; for remaining activity at 100 µM: read-out: residual kinase activity, p38b MAPK
Source text: (§1) Any value less that 25 is considered to be highly significant inhibition.

PKCz = molecular target: T1, PKCz (Homo sapiens, UniProt Q05513); assay: Kinase profiling PKCz; settings: 100 micromolar inhibitor concentration, 100 is no change; for remaining activity at 100 µM: read-out: residual kinase activity, PKCz
T1 sequence (Q05513 1-592): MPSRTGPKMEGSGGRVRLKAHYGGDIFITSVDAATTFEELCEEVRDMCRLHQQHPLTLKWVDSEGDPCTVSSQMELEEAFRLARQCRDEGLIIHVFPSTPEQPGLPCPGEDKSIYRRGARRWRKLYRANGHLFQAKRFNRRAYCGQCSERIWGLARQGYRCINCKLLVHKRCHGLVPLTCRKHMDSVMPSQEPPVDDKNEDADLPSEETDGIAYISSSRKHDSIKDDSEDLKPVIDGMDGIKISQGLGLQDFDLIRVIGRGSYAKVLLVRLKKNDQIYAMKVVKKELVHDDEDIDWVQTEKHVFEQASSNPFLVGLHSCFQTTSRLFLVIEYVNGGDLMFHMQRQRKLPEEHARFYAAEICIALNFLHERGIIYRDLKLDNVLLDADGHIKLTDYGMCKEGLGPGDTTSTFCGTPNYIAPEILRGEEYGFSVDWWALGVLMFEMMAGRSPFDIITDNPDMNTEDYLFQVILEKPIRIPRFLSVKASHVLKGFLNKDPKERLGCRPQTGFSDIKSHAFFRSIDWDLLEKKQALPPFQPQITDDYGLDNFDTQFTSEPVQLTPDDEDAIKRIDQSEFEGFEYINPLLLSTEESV
Source text: as §1

PKCγ = PKCγ (Homo sapiens, UniProt P05129); assay: Kinase profiling PKCγ; settings: 100 micromolar inhibitor concentration, 100 is no change; for remaining activity at 100 µM: read-out: residual kinase activity, PKCγ
Source text: as §1

TrkA = TrkA (Homo sapiens, UniProt P04629); assay: Kinase profiling TrkA; settings: 100 micromolar inhibitor concentration, 100 is no change; for remaining activity at 100 µM: read-out: residual kinase activity, TrkA
Source text: as §1

MKK2 = MKK2 (Homo sapiens, UniProt P36507); assay: Kinase profiling MKK2; settings: 100 micromolar inhibitor concentration, 100 is no change; for remaining activity at 100 µM: read-out: residual kinase activity, MKK2
Sequence of MKK2 (P36507 whole entry, species assumed): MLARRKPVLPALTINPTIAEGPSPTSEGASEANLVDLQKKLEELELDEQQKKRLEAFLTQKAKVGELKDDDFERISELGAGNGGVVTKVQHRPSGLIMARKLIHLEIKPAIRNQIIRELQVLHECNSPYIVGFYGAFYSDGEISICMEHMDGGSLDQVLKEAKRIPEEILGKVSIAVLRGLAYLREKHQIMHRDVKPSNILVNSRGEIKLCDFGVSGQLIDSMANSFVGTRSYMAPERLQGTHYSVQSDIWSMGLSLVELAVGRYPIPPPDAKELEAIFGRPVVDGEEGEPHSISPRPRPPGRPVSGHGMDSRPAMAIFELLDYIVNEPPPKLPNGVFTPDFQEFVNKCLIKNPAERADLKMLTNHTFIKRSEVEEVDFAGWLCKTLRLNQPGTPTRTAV
Source text: as §1

HER4 = HER4 (Homo sapiens, UniProt Q15303); assay: Kinase profiling HER4; settings: 100 micromolar inhibitor concentration, 100 is no change; for remaining activity at 100 µM: read-out: residual kinase activity, HER4
Source text: as §1

TAK1 = molecular target: T2, TAK1 (Homo sapiens, UniProt O43318); assay: Kinase profiling TAK1; settings: 100 micromolar inhibitor concentration, 100 is no change; for remaining activity at 100 µM: read-out: residual kinase activity, TAK1
T2 sequence (O43318 1-303 limits assumed): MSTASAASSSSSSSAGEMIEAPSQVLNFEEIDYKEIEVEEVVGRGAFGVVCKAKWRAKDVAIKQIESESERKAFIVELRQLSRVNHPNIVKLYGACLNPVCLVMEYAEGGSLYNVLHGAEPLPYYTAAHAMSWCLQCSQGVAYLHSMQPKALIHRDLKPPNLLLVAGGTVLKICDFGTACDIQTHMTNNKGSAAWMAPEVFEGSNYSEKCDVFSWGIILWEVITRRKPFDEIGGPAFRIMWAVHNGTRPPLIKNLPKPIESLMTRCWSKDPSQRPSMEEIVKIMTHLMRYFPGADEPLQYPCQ
T2 sequence (Q15750 437-504 partner limits assumed): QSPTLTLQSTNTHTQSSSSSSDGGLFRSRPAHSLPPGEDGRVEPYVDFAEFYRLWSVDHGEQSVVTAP
Source text: as §1

LKB1 = molecular target: T3, LKB1 (Homo sapiens, UniProt Q15831); assay: Kinase profiling LKB1; settings: 100 micromolar inhibitor concentration, 100 is no change; for remaining activity at 100 µM: read-out: residual kinase activity, LKB1
T3 sequence (Q15831 1-433): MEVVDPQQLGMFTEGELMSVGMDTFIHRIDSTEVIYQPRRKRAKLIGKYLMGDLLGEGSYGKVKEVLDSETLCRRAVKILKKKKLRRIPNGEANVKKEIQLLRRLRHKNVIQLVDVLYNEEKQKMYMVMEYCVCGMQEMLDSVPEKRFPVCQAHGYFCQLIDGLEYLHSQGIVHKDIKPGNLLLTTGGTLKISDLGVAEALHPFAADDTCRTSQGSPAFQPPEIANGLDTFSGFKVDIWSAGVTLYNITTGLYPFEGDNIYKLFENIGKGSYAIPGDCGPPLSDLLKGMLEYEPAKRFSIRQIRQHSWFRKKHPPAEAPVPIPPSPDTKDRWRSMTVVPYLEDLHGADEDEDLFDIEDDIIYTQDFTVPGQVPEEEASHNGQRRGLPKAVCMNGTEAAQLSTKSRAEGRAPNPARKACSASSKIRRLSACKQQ
T3 sequence (Q7RTN6 1-431 partner): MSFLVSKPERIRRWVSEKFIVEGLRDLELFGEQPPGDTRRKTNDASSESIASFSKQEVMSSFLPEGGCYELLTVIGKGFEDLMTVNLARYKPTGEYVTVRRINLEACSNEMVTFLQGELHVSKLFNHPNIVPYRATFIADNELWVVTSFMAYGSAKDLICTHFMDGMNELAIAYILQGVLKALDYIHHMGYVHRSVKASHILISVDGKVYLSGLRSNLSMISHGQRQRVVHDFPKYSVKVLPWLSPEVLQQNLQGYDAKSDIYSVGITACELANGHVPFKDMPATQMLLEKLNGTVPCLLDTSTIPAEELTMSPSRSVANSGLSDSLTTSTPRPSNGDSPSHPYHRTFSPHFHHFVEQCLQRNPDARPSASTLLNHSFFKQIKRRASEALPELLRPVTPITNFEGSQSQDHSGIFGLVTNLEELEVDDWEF
T3 sequence (Q9Y376 1-341 partner): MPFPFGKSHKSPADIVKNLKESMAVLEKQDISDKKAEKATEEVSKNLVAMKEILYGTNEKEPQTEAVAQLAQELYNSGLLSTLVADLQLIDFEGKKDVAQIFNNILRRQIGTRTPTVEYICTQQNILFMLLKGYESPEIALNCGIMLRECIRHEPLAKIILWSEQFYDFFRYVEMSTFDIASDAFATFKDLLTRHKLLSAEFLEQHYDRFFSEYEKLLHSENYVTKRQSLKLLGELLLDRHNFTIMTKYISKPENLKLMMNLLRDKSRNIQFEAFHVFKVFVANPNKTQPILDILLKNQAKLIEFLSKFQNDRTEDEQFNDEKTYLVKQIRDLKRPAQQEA
Source text: as §1

ROCK 2 = ROCK 2 (Homo sapiens, UniProt O75116); assay: Kinase profiling ROCK 2; settings: 100 micromolar inhibitor concentration, 100 is no change; for remaining activity at 100 µM: read-out: residual kinase activity, ROCK 2
Source text: as §1

MLK3 = MLK3 (Homo sapiens, UniProt Q16584); assay: Kinase profiling MLK3; settings: 100 micromolar inhibitor concentration, 100 is no change; for remaining activity at 100 µM: read-out: residual kinase activity, MLK3
Sequence of MLK3 (Q16584 whole entry, species assumed): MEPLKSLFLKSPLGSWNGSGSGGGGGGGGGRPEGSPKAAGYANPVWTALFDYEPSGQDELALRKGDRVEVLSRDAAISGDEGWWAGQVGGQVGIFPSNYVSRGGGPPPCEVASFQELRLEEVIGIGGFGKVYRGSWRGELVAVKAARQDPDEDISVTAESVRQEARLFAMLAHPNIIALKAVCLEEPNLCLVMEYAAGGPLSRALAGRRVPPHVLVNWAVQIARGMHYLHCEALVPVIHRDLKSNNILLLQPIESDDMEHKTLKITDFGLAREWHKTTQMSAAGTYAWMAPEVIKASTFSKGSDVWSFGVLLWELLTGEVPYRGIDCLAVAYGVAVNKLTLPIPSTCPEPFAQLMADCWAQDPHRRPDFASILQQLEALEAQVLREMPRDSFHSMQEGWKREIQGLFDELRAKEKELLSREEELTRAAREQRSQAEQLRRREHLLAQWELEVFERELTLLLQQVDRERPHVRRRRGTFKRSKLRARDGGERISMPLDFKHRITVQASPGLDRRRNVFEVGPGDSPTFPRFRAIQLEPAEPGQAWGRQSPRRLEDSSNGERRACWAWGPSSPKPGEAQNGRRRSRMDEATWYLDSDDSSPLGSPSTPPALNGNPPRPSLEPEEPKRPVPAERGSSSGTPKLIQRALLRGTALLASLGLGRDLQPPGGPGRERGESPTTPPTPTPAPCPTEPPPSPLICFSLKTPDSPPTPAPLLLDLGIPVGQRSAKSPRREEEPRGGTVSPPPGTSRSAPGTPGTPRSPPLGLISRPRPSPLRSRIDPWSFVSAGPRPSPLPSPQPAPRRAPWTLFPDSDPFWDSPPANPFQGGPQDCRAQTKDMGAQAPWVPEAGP
Source text: as §1

PRK2 = PRK2 (Homo sapiens, UniProt Q16513); assay: Kinase profiling PRK2; settings: 100 micromolar inhibitor concentration, 100 is no change; for remaining activity at 100 µM: read-out: residual kinase activity, PRK2
Source text: as §1

MSK1 = MSK1 (Homo sapiens, UniProt O75582); assay: Kinase profiling MSK1; settings: 100 micromolar inhibitor concentration, 100 is no change; for remaining activity at 100 µM: read-out: residual kinase activity, MSK1
Sequence of MSK1 (O75582 whole entry, species assumed): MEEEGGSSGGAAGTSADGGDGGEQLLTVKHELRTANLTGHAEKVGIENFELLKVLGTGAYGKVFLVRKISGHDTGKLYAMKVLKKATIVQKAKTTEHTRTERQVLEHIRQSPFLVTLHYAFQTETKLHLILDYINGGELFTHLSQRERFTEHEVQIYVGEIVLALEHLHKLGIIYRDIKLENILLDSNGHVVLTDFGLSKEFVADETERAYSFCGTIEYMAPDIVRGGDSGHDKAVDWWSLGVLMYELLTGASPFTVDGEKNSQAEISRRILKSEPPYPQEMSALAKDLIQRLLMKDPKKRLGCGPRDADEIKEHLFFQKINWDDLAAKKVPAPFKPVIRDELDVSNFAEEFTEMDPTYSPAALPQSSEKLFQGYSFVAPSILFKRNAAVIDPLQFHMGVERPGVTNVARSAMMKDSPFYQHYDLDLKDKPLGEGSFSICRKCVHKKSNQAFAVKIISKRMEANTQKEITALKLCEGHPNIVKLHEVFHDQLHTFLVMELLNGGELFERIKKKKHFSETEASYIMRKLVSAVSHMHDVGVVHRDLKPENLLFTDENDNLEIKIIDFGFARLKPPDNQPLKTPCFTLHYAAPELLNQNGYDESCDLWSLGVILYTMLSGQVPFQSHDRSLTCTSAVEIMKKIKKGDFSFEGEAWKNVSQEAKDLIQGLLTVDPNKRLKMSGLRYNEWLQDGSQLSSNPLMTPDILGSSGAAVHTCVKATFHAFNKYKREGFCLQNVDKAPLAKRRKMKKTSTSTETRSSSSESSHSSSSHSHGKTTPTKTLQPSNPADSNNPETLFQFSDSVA
Source text: as §1

S6K1 = S6K1 (Homo sapiens, UniProt P23443); assay: Kinase profiling S6K1; settings: 100 micromolar inhibitor concentration, 100 is no change; for remaining activity at 100 µM: read-out: residual kinase activity, S6K1
Sequence of S6K1 (P23443 whole entry, species assumed): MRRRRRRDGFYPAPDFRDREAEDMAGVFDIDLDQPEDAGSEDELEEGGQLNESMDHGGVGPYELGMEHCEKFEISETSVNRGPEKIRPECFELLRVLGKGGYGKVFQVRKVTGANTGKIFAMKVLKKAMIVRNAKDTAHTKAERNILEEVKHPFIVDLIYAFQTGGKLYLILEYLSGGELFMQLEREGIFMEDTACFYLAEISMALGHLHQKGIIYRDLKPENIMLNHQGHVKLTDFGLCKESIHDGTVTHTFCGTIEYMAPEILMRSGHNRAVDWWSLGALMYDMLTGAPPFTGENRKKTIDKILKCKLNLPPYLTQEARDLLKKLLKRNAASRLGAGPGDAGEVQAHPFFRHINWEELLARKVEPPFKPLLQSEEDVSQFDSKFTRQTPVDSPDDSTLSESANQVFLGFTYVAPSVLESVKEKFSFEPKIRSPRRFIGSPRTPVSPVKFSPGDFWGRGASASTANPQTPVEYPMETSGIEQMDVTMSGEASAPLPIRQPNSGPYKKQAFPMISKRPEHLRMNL
Source text: as §1

SRPK1 = SRPK1 (Homo sapiens, UniProt Q96SB4); assay: Kinase profiling SRPK1; settings: 100 micromolar inhibitor concentration, 100 is no change; for remaining activity at 100 µM: read-out: residual kinase activity, SRPK1
Sequence of SRPK1 (Q96SB4 whole entry, species assumed): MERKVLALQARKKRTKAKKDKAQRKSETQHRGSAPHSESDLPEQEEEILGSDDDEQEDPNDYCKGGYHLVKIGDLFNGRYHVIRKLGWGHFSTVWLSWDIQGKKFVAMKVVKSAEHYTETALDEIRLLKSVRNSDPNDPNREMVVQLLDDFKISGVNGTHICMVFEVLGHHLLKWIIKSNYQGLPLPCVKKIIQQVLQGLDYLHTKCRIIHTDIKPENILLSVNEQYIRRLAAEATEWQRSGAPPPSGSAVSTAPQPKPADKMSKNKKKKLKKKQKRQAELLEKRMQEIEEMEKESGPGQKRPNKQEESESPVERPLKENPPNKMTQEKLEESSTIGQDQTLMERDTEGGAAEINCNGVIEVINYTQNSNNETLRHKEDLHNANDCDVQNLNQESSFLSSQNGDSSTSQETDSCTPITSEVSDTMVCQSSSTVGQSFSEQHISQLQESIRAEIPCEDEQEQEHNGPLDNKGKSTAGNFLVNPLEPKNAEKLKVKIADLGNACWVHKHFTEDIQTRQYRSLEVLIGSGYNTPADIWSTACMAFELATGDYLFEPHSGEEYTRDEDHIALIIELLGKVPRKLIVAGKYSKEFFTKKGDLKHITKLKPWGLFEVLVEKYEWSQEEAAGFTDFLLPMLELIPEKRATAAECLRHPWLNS
Source text: as §1

NEK6 = NEK6 (Homo sapiens, UniProt Q9HC98); assay: Kinase profiling NEK6; settings: 100 micromolar inhibitor concentration, 100 is no change; for remaining activity at 100 µM: read-out: residual kinase activity, NEK6
Sequence of NEK6 (Q9HC98 whole entry, species assumed): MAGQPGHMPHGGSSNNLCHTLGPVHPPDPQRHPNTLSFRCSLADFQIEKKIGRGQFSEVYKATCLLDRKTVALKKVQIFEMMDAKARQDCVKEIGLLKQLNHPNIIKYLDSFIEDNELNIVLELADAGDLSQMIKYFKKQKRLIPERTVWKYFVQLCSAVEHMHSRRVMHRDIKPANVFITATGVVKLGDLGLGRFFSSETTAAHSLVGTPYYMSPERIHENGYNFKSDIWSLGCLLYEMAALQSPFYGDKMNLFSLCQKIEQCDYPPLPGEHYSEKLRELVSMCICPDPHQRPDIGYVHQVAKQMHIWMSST
Source text: as §1

Sequence of p38b MAPK (Q15759 whole entry): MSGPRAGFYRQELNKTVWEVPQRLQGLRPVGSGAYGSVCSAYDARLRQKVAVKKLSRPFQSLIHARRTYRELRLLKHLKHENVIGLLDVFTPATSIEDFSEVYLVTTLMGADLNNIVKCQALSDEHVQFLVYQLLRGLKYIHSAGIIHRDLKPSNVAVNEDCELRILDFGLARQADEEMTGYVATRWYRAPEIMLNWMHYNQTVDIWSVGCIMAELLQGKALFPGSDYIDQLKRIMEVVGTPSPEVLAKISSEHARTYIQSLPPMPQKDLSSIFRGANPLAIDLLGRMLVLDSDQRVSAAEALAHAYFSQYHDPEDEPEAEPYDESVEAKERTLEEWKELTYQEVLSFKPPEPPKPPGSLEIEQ

Row | SMILES | residual kinase activity, p38b MAPK (p38b MAPK) | residual kinase activity, PKCz (PKCz) | residual kinase activity, PKCγ (PKCγ) | residual kinase activity, TrkA (TrkA) | residual kinase activity, MKK2 (MKK2) | residual kinase activity, HER4 (HER4) | residual kinase activity, TAK1 (TAK1) | residual kinase activity, LKB1 (LKB1) | residual kinase activity, ROCK 2 (ROCK 2) | residual kinase activity, MLK3 (MLK3) | residual kinase activity, PRK2 (PRK2) | residual kinase activity, MSK1 (MSK1) | residual kinase activity, S6K1 (S6K1) | residual kinase activity, SRPK1 (SRPK1) | residual kinase activity, NEK6 (NEK6) | other results
1 | O=C(Nc1nc2cc(O)ccc2s1)c1ccccn1 [Compound 03-13] | 91 | 102 | 141 | 57 | 82 | 98 | 34 | 45 | 96 | 57 | 97 | 100 | 71 | 57 | 107 | 
2 | COc1ccc2sc(NC(C)=O)nc2c1 [Compound 03-21] |  |  |  |  |  |  |  |  |  |  |  |  |  |  |  | remaining activity at 100 µM (p38b MAPK): 101%; remaining activity at 100 µM (PKCz): 85%; remaining activity at 100 µM (PKCγ): 103%; remaining activity at 100 µM (TrkA): 78%; remaining activity at 100 µM (MKK2): 90%; remaining activity at 100 µM (HER4): 94%; remaining activity at 100 µM (TAK1): 50%; remaining activity at 100 µM (LKB1): 93%; remaining activity at 100 µM (ROCK 2): 52%; remaining activity at 100 µM (MLK3): 59%; remaining activity at 100 µM (PRK2): 67%; remaining activity at 100 µM (MSK1): 93%; remaining activity at 100 µM (S6K1): 63%; remaining activity at 100 µM (SRPK1): 84%; remaining activity at 100 µM (NEK6): 108%
3 | CC(=O)Nc1nc2ccccc2s1 [Compound 03-32] | 107 | 126 | 94 | 77 | 96 | 78 | 76 | 97 | 91 | 71 | 81 | 98 | 92 | 59 | 92 | 
4 | O=C(Nc1nc2cc(O)ccc2s1)c1cccnc1 [Compound 03-33] | 87 | 105 | 103 | 51 | 85 | 48 | 73 | 83 | 53 | 48 | 85 | 92 | 75 | 58 | 107 | 
5 | O=C(Nc1nc2ccc(O)cc2s1)c1ccccc1 [Compound 03-60] | 76 | 80 | 83 | 23 | 90 | 16 | 9 | 68 | 11 | 5 | 27 | 31 | 11 | 3 | 97 | 
6 | CC(=O)Nc1nc2cc(C(F)(F)F)ccc2s1 [Compound 03-73] |  |  |  |  |  |  |  |  |  |  |  |  |  |  |  | remaining activity at 100 µM (p38b MAPK): 97%; remaining activity at 100 µM (PKCz): 97%; remaining activity at 100 µM (PKCγ): 106%; remaining activity at 100 µM (TrkA): 74%; remaining activity at 100 µM (MKK2): 98%; remaining activity at 100 µM (HER4): 110%; remaining activity at 100 µM (TAK1): 45%; remaining activity at 100 µM (LKB1): 98%; remaining activity at 100 µM (ROCK 2): 83%; remaining activity at 100 µM (MLK3): 57%; remaining activity at 100 µM (PRK2): 91%; remaining activity at 100 µM (MSK1): 91%; remaining activity at 100 µM (S6K1): 77%; remaining activity at 100 µM (SRPK1): 72%; remaining activity at 100 µM (NEK6): 119%
7 | CC(=O)Nc1nc2cc(C)ccc2s1 [Compound 03-76] | 83 | 101 | 106 | 56 | 155 | 85 | 52 | 96 | 79 | 35 | 84 | 84 | 77 | 73 | 107 | 
